Reference: ChEMBL document CHEMBL3627608, “Crystal structures of human RIP2 kinase catalytic domain complexed with ATP-competitive inhibitors: Foundations for understanding inhibitor selectivity” (Bioorg Med Chem, 2015)

Columns and labels:
[1] = molecular target: Proto-oncogene tyrosine-protein kinase Src (Homo sapiens) (UniProt P12931); experiment: Inhibition of c-Src (unknown origin) at 10 uM after 120 mins P33 radiolabeled kinase activity assay
[2] = molecular target: T1, Discoidin domain-containing receptor 2 (Homo sapiens) (UniProt Q16832); experiment: Inhibition of DDR2 (unknown origin) at 10 uM after 120 mins P33 radiolabeled kinase activity assay
T1 sequence (whole entry): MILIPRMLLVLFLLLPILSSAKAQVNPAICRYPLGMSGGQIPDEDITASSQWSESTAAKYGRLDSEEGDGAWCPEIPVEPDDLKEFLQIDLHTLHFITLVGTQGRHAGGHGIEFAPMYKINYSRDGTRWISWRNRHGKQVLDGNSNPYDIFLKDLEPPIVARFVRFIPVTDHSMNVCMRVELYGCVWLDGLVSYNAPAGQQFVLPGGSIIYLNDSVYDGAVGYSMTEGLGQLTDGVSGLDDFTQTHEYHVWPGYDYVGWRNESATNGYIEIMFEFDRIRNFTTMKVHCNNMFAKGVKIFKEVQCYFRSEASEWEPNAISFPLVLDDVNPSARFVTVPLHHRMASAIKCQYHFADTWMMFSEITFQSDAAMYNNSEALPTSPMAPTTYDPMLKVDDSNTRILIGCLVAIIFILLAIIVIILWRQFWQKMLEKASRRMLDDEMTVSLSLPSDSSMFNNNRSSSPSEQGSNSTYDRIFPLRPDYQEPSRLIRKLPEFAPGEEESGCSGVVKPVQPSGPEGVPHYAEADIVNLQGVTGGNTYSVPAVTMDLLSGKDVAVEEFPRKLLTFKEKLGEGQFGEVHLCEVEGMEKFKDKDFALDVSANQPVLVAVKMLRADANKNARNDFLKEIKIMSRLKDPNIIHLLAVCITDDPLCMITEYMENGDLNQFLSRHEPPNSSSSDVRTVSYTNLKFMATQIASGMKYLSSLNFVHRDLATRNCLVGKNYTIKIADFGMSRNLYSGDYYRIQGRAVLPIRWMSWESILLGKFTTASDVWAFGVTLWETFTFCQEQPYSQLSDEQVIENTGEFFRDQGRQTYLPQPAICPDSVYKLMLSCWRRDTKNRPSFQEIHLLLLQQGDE

[3] = molecular target: T2, 3-phosphoinositide-dependent protein kinase 1 (Homo sapiens) (UniProt O15530); experiment: Inhibition of PDK1 (unknown origin) at 10 uM after 120 mins P33 radiolabeled kinase activity assay
T2 sequence (whole entry): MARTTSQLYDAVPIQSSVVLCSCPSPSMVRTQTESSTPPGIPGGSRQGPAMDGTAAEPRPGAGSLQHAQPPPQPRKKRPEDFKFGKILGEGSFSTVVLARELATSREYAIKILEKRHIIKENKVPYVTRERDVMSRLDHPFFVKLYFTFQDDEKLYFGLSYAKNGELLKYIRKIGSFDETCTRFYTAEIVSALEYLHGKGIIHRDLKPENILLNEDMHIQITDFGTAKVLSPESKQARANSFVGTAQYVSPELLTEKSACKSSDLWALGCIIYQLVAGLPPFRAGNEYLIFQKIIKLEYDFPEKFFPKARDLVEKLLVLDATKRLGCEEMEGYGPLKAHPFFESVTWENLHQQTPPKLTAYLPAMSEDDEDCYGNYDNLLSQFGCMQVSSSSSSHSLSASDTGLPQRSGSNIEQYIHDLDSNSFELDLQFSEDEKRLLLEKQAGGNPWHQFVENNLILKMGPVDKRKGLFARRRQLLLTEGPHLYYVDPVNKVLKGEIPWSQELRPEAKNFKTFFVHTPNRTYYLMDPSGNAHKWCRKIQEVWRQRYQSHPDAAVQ

[4] = molecular target: Rho-associated protein kinase 2 (Homo sapiens) (UniProt O75116); experiment: Inhibition of ROCK2 (unknown origin) at 10 uM after 120 mins P33 radiolabeled kinase activity assay
Chain of Rho-associated protein kinase 2 (Homo sapiens) (O75116 whole entry, looked up): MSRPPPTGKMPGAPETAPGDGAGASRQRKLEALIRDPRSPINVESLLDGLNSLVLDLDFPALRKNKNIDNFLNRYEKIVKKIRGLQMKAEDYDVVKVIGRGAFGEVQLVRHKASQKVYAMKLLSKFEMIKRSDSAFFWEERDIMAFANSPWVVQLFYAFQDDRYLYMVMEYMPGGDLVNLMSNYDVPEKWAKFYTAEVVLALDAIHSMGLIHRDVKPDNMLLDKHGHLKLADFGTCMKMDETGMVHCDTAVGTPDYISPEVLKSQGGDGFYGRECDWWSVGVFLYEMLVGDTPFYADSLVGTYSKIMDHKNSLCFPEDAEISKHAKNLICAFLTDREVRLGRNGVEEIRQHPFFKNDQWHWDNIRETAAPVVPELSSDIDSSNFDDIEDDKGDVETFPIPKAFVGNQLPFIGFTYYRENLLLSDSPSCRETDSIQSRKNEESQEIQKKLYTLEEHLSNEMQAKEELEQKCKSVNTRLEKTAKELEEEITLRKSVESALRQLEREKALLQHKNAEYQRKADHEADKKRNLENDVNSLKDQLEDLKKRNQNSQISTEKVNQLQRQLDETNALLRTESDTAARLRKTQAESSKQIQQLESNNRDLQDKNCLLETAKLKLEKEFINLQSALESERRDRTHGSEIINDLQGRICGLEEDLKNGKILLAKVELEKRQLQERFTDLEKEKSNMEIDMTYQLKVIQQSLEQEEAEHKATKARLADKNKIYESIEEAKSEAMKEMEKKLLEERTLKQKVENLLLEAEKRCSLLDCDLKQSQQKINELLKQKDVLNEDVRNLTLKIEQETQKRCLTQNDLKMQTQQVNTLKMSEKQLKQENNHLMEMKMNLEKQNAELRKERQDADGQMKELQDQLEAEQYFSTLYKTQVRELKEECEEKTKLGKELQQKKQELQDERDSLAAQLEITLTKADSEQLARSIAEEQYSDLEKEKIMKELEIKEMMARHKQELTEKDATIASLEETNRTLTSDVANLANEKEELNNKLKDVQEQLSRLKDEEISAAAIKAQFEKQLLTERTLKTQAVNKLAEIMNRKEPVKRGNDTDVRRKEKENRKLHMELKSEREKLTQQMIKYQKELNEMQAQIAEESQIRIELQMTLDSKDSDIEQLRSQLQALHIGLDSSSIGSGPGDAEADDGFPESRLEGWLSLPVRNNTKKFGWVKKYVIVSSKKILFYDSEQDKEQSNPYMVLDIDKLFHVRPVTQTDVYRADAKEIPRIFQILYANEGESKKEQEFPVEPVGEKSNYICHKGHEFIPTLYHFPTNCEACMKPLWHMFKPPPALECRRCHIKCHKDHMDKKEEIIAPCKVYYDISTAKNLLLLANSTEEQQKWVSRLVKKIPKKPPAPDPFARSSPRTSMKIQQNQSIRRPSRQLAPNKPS

[5] = molecular target: T3, Tyrosine-protein kinase Tec (Homo sapiens) (UniProt P42680); experiment: Inhibition of TEC (unknown origin) at 10 uM after 120 mins P33 radiolabeled kinase activity assay
T3 sequence (whole entry): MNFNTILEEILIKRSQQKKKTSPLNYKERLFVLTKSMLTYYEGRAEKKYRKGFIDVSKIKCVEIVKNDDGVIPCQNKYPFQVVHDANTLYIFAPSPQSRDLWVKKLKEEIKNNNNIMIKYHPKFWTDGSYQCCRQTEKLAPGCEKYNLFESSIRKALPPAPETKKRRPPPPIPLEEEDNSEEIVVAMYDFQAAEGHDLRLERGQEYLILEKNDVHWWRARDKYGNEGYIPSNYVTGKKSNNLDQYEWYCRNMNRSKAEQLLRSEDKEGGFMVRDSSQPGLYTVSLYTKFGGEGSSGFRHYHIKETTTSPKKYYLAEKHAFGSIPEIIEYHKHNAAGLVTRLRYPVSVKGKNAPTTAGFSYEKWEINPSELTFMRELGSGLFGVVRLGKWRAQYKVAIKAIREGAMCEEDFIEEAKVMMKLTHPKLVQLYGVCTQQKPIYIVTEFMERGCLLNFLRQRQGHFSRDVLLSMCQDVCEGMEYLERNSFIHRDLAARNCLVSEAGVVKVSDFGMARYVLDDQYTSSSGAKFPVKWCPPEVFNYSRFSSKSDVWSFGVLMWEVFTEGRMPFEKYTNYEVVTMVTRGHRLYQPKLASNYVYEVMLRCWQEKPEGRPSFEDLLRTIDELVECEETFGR

[6] = molecular target: Ribosomal protein S6 kinase alpha-5 (Homo sapiens) (UniProt O75582); experiment: Inhibition of MSK1 (unknown origin) at 10 uM after 120 mins P33 radiolabeled kinase activity assay
Chain of Ribosomal protein S6 kinase alpha-5 (Homo sapiens) (O75582 whole entry, looked up): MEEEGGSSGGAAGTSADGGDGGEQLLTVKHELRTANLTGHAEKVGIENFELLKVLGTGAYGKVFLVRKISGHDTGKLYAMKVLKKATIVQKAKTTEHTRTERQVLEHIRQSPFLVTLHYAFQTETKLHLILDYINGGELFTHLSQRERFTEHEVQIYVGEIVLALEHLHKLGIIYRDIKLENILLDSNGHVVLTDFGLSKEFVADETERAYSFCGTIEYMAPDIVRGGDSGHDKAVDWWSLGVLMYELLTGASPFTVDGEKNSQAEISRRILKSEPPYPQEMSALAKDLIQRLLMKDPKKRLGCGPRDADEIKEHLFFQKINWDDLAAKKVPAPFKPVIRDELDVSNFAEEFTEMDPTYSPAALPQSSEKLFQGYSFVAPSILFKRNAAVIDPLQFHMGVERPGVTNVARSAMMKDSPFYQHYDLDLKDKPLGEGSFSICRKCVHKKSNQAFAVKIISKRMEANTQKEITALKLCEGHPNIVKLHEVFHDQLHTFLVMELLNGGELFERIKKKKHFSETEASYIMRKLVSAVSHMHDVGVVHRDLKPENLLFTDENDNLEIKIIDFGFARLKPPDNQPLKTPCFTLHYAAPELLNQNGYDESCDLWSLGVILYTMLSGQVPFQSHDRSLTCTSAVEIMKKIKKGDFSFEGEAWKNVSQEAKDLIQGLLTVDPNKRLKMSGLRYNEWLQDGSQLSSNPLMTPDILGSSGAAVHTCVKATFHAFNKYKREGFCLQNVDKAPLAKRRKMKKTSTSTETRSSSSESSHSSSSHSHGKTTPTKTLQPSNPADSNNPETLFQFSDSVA

Chain of Proto-oncogene tyrosine-protein kinase Src (Homo sapiens) (P12931 2-536 limits assumed): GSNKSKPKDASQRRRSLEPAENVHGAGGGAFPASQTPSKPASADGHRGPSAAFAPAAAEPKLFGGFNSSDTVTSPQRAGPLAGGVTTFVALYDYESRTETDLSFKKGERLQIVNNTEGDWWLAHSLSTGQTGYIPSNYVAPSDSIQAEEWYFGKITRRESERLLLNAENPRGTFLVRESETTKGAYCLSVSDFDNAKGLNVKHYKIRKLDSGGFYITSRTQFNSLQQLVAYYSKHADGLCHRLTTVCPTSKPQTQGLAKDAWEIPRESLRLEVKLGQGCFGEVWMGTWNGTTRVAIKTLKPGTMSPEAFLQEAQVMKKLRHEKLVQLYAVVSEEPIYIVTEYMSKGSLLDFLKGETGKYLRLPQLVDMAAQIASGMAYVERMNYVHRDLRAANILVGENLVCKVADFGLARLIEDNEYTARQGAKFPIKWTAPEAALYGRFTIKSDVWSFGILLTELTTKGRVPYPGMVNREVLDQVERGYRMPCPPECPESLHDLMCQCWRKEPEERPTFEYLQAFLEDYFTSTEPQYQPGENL

| Compound | inhibition [1] | inhibition [2] | inhibition [3] | inhibition [4] | inhibition [5] | inhibition [6] |
| --- | --- | --- | --- | --- | --- | --- |
| COCCNC(=O)c1ccc2c(c1)nc(-c1cnc(-c3ccc(Cl)cc3)[nH]1)n2CCOC | 81.1% | 28.2% | 4.43% | 6.87% | 5.53% | 7.07% |
| CS(=O)(=O)c1cccc(Nc2nccc(-c3sc(N4CCOCC4)nc3-c3cccc(NS(=O)(=O)c4c(F)cccc4F)c3)n2)c1 | 99.1% | 99% | 7.26% | 14.8% | 89.2% | 5.17% |
| CC(C)(C)c1cc(NC(=O)Nc2ccc(Oc3ccncc3)cc2)no1 | 85.8% | 98% | 8.32% | 59.1% | 3.88% | 49.5% |
